Three compounds from ChEMBL document CHEMBL4393671, “Design of a Cyclin G Associated Kinase (GAK)/Epidermal Growth Factor Receptor (EGFR) Inhibitor Set to Interrogate the Relationship of EGFR and GAK in Chordoma” (J Med Chem, 2019) can be followed below.

Activity calls are given as the source filed them. No cut-off for these calls is given here.

A short description of experiment [1]: cells. Type of experiment: functional, cell-based. Particulars: Homo sapiens, UCH2, 72 h.
Description: Antiproliferative activity against human UCH2 cells measured after 72 hrs by alamar blue assay
Experiment [2] deals with Tyrosine-protein kinase ABL1 (Homo sapiens, UniProt P00519). Description: Binding affinity to wild-type human ABL1 (S229 to K512 residues) expressed in mammalian expression system by Kinomescan method.
Experiment [3] addresses Proto-oncogene tyrosine-protein kinase receptor Ret (Homo sapiens, UniProt P07949). Description: Binding affinity to wild-type human partial length RET (E713 to D1014 residues) expressed in bacterial expression system by Kinomescan method.
In experiment [4] the target is T1, Serine/threonine-protein kinase D2 (Homo sapiens, UniProt Q9BZL6).
T1 sequence (Q9BZL6 whole entry): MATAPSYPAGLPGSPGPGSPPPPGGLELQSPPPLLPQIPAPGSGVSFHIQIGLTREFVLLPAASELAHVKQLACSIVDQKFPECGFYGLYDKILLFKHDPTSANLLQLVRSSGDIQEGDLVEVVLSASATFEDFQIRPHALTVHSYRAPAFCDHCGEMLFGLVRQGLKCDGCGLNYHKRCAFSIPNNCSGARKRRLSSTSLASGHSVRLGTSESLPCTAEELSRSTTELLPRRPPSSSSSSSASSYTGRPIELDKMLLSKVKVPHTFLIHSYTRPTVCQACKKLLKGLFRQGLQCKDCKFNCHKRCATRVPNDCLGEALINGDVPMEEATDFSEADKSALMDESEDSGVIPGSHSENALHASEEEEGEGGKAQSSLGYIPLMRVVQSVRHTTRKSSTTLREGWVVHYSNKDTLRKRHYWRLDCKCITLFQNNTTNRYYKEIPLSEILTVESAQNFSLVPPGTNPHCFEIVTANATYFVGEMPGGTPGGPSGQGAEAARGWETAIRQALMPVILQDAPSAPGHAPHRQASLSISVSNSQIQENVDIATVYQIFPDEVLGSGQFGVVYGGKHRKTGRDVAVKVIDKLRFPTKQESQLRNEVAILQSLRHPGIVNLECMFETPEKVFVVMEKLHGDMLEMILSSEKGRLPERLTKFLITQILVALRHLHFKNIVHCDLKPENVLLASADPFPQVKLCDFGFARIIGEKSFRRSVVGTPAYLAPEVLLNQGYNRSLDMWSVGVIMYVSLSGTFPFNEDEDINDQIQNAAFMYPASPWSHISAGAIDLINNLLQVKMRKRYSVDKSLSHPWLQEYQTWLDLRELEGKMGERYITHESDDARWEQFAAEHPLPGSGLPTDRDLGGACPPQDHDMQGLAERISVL
Description: Binding affinity to wild-type human partial length PRKD2 (A519 to E838 residues) expressed in bacterial expression system by Kinomescan method.

Experiment [5] deals with Serine/threonine-protein kinase SIK2 (Homo sapiens, UniProt Q9H0K1). Description: Binding affinity to wild-type human full length SIK2 (M1 to N926 residues) expressed in bacterial expression system by Kinomescan method.
Experiment [6] can be described thus: cells. The following applies: Homo sapiens, UCH1, 72 h. In kind it is functional, cell-based.
Description: Antiproliferative activity against human UCH1 cells measured after 72 hrs by alamar blue assay
In experiment [7] the target is T2, Epidermal growth factor receptor (Homo sapiens, UniProt P00533).
Description: Binding affinity to wild-type human partial length EGFR (R669 to V1011 residues) expressed in bacterial expression system by Kinomescan method
The next experiment is filed under the species Homo sapiens. Description: Selectivity ratio of Kd for wild-type human partial length EGFR (R669 to V1011 residues) expressed in bacterial expression system to kd for wild-type human partial length GAK (G13 to Y338 residues) expressed in bacterial expression system.
The next experiment addresses Activated CDC42 kinase 1 (Homo sapiens, UniProt Q07912). Description: Binding affinity to wild-type human partial length TNK2 (S159 to D474 residues) expressed in bacterial expression system by Kinomescan method.
Experiment [8] deals with Tyrosine-protein kinase ABL2 (Homo sapiens, UniProt P42684). Description: Binding affinity to wild-type human ABL2 (A248 to G542 residues) expressed in bacterial expression system by Kinomescan method.
Experiment [9] addresses T2, Epidermal growth factor receptor. In kind it is cell-based.
Description: Inhibition of EGFR in human A431 cells assessed as reduction in EGF-stimulated EGFR autophosphorylation preincuabted for 90 mins followed by EGF-stimulation by sandwich-ELISA
Experiment [10] addresses T3, Cyclin-G-associated kinase (Homo sapiens) (UniProt O14976).
T3 sequence (whole entry): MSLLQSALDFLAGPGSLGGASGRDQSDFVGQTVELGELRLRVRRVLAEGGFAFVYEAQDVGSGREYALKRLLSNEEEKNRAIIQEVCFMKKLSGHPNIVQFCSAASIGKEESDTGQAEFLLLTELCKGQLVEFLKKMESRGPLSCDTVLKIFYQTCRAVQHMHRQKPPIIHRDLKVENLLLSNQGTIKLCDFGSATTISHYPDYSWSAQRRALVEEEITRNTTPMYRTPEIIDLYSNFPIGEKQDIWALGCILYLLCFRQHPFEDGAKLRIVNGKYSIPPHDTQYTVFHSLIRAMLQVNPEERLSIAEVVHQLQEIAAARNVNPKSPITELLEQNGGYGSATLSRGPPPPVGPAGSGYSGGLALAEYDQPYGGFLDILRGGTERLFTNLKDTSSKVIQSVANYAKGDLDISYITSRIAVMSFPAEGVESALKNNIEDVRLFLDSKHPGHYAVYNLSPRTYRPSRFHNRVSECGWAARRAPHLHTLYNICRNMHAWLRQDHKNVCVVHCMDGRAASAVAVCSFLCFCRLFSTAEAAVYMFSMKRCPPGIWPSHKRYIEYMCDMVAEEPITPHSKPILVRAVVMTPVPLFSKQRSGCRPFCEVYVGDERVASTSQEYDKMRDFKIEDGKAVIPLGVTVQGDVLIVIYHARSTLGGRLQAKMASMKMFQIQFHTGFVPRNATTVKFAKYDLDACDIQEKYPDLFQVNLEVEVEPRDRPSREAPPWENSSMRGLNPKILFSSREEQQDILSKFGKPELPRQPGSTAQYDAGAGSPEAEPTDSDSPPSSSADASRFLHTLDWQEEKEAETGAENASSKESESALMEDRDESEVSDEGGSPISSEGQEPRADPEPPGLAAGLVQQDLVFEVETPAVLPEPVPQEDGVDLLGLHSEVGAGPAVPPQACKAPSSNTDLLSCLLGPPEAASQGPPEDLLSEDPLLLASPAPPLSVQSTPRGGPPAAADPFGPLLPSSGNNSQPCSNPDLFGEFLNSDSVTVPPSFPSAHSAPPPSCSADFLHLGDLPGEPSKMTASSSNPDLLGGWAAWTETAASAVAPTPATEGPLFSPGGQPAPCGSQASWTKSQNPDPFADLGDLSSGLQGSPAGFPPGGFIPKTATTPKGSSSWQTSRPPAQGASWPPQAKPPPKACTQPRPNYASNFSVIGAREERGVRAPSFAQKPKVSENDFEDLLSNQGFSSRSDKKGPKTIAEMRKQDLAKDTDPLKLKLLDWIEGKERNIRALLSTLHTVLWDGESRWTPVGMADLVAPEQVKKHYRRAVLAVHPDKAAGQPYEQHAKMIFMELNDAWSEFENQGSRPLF
Description: Inhibition of tracer 5 binding to human N-terminal nano luciferase-fused GAK expressed in HEK293 cells at 5 uM measured after 2 hrs by nanoBRET assay relative to control. Type of experiment: cell-based. Background: In BRET a luciferase serves as donor, and the signal depends on an acceptor being close.

Experiment [11] concerns the target Aurora kinase B (Homo sapiens) (UniProt Q96GD4). Description: Binding affinity to AURKB in human SUM159 cell lysates by multiplexed inhibitor bead profiling-based LC-MS/MS analysis. Type of experiment: subcellular. Particulars: Lysate.
The nature of experiment [12]: cells. In kind it is ADME, cell-based. The following applies: Homo sapiens, WS1, 72 h.
Description: Cytotoxicity against human WS1 cells measured after 72 hrs by alamar blue assay
Experiment [13] deals with T4, Cyclin-G-associated kinase (Homo sapiens, UniProt O14976).
T4 sequence (O14976 whole entry): T3 sequence (whole entry)
Description: Binding affinity to wild-type human partial length GAK (G13 to Y338 residues) expressed in bacterial expression system by Kinomescan method.

Experiment [14] can be described thus: cells. In kind it is functional, cell-based. Particulars: Homo sapiens, 72 h.
Description: Antiproliferative activity against human CH22 cells measured after 72 hrs by alamar blue assay
The nature of experiment [15]: cells. Type of experiment: functional, cell-based. The following applies: Homo sapiens, 72 h. The source holds these as a separate data set.
Description: Antiproliferative activity against human UCH7 cells measured after 72 hrs by alamar blue assay
Experiment [16] can be described thus: cells. Particulars: Homo sapiens, 72 h. Type of experiment: functional, cell-based. This is another data set of the same source.
Description: Antiproliferative activity against human UMCHOR1 cells measured after 72 hrs by alamar blue assay
Experiment [17] addresses T5, Dual specificity mitogen-activated protein kinase kinase 5 (Homo sapiens) (UniProt Q13163).
T5 sequence (whole entry): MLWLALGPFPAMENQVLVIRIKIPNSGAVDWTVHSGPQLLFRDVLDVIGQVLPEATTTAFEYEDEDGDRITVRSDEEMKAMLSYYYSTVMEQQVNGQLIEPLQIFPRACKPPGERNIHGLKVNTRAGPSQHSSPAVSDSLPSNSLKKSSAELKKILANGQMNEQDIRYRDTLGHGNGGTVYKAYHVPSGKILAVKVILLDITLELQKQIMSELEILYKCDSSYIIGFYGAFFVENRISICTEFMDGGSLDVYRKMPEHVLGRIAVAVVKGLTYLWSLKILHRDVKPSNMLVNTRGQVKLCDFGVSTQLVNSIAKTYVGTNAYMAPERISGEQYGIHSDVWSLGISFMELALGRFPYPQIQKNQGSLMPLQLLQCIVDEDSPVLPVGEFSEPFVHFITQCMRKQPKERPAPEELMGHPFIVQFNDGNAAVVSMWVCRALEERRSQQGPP
Description: Binding affinity to MAP2K5 in human SUM159 cell lysates by multiplexed inhibitor bead profiling-based LC-MS/MS analysis. In kind it is subcellular. The following applies: Lysate.

Experiment [18] in a line: cells. In kind it is functional, cell-based. Particulars: Homo sapiens, 72 h. This is another data set of the same source.
Description: Antiproliferative activity against human UCH14 cells measured after 72 hrs by alamar blue assay
Experiment [19] can be described thus: cells. In kind it is functional, cell-based. The following applies: Homo sapiens, 72 h. This is another data set of the same source.
Description: Antiproliferative activity against human UCH12 cells measured after 72 hrs by alamar blue assay
The target of experiment [20] is Nucleoside diphosphate kinase B (Homo sapiens) (UniProt P22392). Description: Binding affinity to NME2 in human SUM159 cell lysates by multiplexed inhibitor bead profiling-based LC-MS/MS analysis. In kind it is subcellular. The following applies: Lysate.
In experiment [21] the target is T3, Cyclin-G-associated kinase (Homo sapiens). Description: Binding affinity to wild-type human partial length GAK (G13 to Y338 residues) expressed in bacterial expression system at 1 uM by Kinomescan method relative to control.

T2 sequence (P00533 whole entry, the tested form may be a part): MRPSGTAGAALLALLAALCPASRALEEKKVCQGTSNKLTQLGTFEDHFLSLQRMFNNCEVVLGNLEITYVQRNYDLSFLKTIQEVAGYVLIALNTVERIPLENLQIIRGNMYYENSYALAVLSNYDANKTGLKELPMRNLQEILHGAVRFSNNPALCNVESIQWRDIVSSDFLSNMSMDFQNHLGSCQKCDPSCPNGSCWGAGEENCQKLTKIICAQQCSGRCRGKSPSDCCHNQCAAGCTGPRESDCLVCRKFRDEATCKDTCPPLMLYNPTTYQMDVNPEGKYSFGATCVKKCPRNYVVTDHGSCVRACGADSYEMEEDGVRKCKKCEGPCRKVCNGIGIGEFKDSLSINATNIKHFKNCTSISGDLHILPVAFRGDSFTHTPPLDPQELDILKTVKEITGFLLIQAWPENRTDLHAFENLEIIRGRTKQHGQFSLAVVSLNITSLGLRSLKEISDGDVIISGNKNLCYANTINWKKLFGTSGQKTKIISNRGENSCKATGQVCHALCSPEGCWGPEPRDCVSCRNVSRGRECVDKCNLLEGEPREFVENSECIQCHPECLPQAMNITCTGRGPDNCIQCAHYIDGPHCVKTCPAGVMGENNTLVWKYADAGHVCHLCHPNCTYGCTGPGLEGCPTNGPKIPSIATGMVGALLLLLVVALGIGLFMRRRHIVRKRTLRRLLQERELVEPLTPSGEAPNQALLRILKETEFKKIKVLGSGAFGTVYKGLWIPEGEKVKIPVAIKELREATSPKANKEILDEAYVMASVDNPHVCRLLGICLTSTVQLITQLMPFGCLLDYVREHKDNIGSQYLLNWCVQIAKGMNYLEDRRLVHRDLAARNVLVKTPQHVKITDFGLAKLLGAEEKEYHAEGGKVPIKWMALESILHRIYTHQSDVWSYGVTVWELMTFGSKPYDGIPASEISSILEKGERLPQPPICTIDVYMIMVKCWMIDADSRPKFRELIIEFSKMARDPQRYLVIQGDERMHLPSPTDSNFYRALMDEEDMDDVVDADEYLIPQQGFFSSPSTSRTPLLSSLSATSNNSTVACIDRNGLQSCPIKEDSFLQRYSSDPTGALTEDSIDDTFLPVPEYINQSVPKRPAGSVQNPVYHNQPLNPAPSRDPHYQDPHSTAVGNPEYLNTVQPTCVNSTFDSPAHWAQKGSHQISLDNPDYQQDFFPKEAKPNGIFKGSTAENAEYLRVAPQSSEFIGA
Sequence of Tyrosine-protein kinase ABL2 (P42684 whole entry, the tested form may be a part): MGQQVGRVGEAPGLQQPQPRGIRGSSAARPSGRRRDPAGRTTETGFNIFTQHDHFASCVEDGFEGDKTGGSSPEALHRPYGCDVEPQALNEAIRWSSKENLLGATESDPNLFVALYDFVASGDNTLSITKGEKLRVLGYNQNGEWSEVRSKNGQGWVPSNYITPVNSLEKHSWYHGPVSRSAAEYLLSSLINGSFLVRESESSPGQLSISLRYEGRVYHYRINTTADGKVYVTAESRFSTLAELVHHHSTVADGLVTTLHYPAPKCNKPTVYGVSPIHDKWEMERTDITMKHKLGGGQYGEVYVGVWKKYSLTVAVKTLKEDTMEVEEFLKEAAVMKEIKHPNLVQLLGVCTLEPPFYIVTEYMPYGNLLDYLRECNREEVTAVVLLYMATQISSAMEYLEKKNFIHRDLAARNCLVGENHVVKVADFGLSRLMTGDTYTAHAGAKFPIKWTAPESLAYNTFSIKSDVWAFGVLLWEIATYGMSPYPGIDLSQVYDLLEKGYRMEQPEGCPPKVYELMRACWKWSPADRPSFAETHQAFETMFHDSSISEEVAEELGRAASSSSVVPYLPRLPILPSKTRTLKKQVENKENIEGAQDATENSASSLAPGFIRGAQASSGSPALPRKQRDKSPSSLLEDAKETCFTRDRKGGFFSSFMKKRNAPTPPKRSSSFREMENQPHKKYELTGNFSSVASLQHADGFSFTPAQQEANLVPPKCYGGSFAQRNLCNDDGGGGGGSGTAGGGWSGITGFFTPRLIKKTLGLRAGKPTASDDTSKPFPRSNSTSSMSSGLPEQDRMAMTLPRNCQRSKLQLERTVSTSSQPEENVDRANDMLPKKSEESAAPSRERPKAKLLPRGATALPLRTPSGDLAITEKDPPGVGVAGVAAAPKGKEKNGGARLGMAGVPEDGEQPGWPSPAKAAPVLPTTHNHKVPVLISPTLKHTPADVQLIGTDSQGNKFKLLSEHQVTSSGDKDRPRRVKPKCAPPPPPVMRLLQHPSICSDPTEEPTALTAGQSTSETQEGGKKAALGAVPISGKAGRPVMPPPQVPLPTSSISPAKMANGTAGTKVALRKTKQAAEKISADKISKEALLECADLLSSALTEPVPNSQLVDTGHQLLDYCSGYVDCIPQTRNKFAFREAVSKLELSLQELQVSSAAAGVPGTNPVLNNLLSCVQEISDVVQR
Sequence of Proto-oncogene tyrosine-protein kinase receptor Ret (P07949 whole entry, the tested form may be a part): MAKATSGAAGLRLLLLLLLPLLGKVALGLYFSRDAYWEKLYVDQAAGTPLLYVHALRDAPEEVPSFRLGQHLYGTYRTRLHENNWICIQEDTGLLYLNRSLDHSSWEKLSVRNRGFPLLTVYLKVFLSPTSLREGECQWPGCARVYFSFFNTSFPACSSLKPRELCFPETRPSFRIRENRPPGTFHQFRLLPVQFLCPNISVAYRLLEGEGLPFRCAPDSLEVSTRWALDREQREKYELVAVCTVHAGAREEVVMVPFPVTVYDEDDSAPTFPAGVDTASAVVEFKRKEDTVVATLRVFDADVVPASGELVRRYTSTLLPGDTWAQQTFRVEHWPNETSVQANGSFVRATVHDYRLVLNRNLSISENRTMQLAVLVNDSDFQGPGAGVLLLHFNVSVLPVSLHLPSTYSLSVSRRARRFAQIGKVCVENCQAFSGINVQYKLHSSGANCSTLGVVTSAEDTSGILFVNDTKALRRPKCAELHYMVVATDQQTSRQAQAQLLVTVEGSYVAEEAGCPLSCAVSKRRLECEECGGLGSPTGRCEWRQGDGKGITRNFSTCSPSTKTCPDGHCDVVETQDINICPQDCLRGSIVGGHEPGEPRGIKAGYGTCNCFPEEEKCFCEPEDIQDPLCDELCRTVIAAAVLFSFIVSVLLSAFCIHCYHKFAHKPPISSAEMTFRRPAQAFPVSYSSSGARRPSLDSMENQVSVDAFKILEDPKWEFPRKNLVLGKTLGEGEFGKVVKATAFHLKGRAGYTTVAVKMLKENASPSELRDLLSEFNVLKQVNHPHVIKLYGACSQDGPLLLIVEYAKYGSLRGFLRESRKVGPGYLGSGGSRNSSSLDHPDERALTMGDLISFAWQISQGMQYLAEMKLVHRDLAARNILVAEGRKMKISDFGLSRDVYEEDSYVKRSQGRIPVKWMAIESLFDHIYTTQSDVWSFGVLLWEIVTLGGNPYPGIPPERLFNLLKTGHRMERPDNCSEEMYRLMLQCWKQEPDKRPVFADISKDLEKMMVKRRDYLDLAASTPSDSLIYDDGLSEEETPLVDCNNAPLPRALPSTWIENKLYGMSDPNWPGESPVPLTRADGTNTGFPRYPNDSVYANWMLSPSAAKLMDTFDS
Sequence of Activated CDC42 kinase 1 (Q07912 whole entry, the tested form may be a part): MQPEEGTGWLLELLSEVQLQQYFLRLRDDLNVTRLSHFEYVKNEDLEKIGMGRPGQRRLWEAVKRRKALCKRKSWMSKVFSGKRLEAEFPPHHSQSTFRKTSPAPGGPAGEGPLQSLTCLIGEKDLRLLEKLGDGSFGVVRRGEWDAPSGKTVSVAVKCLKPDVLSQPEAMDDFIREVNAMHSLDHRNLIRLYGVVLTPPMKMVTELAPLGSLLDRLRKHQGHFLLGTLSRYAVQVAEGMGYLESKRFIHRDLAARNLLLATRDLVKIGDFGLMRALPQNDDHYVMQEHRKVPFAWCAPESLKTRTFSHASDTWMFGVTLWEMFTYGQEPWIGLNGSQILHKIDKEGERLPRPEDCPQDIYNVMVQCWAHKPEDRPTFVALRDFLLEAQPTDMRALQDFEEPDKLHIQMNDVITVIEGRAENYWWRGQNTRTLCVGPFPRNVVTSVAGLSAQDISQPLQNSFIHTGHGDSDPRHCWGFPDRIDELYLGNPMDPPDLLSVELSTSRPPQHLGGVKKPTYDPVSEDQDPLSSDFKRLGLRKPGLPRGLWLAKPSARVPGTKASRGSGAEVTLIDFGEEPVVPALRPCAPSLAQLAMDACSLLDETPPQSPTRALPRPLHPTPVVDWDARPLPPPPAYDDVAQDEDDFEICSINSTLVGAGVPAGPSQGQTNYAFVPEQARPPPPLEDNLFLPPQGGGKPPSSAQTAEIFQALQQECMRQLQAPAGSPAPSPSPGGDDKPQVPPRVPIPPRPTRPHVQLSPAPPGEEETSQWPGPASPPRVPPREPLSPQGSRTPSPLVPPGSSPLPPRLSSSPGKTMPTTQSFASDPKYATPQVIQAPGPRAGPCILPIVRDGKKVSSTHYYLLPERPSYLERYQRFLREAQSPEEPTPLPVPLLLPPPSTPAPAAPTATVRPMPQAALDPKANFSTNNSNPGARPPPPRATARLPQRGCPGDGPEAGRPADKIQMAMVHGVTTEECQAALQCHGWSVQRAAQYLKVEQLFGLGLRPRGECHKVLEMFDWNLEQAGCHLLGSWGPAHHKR
Sequence of Nucleoside diphosphate kinase B (Homo sapiens) (P22392 whole entry, the tested form may be a part): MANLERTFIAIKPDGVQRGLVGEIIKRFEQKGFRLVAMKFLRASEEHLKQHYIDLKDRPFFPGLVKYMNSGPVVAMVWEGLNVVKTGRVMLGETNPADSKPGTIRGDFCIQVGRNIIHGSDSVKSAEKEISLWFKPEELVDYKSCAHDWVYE
Sequence of Aurora kinase B (Homo sapiens) (Q96GD4 whole entry): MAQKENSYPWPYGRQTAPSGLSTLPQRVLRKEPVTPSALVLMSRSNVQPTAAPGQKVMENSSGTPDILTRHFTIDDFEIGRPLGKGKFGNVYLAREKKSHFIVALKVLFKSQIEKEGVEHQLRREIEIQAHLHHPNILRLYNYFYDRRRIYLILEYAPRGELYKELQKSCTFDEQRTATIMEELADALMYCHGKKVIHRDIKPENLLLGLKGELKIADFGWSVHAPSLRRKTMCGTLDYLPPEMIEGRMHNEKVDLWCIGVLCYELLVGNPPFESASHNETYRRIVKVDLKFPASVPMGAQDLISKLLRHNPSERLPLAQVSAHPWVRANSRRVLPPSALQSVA

`COc1cccc(Nc2ncnn3ccc(CN4CC[C@@H](N)[C@H](O)C4)c23)c1` [BMS-690514]: the IC50 in “cells [1]” was above 50 µM; in the experiment “cells [6]” it was 0.53 µM. For the same compound, the dissociation constant (Kd) in [2] was below 0.225 µM; in experiment [3], below 0.225 µM; in [4], below 0.225 µM; in [5] it was below 0.225 µM; in experiment [7], 0.22 µM; on Activated CDC42 kinase 1, below 0.225 µM. The compound further came in with a Kd in [8] below 0.225 µM. In addition, in the experiment filed under Homo sapiens, the Selectivity ratio was above 700.

On to `COc1cc2nccc(Nc3ccc(OCc4cccc(F)c4)c(Cl)c3)c2cc1OC`, for which the IC50 in [9] came to 1.7 µM; in “cells [1]”, 2.9 µM; in “cells [12]”, 8.6 µM; in “cells [14]”, 1 µM; in “cells [15]” it was 2.7 µM; in the experiment “cells [16]”, 1.5 µM. In addition, the IC50 in “cells [6]” came out at 2.6 µM; in “cells [18]”, 7 µM; in the experiment “cells [19]”, 5.5 µM. In experiment [10], this compound displayed an inhibition of 22%. In addition, the outcome in experiment [11], in experiment [17] and in [20] was Active. Moreover, the dissociation constant (Kd) in experiment [13] was above 10 µM; in [7] it was 0.032 µM.

As for `CS(=O)(=O)CCNCc1ccc(-c2ccc3ncnc(Nc4ccc(OCc5cccc(F)c5)c(Cl)c4)c3c2)o1` [LAPATINIB], the inhibition in experiment [10] was 0%. In addition, the IC50 is above 50 µM in “cells [1]”; 13 µM in “cells [12]”; 25 µM in “cells [14]”; 26 µM in “cells [15]”; 25 µM in the experiment “cells [16]”; 3.2 µM in “cells [6]”. For the same compound, the figures for the IC50 in “cells [18]” and in “cells [19]” were above 50 µM and 33 µM, respectively. For the same compound, in experiment [21], the Activity is below 50%.

The IC50 is the concentration that inhibits the measured activity by half. What is called Kd is a measure of binding affinity in units of concentration. A high value points to weaker binding. A word on the inhibition: it is the drop in the measured response relative to a control, in per cent.
